Patent publication US11787785B2 (NOVARTIS AG, priority 2021, dated 2023)

Biological target: T1, WIZ protein (HiBit-WIZ fusion protein) (Homo sapiens, UniProt O95785+Q96SW2)
T1 construct: expressed in transfected cells
Test: Quantification of WIZ protein levels in HiBit tag fusion protein assay (WIZ HiBit assay in 293T cells)
Format: cell-based
Set-up: remaining activity / Dmax: dose or concentration left out as unconfirmed
Settings: for Dmax at 25 µM: 100 − Amax; for Dmax at 25 µM / remaining activity at 25 µM: 293T cells; for remaining activity at 25 µM: DMSO-normalized, curve-fitted percentage of WIZ-HiBit remaining at 25 uM; for DC50: WIZ HiBit assay in 293T cells, 10-point, 5-fold dose response, highest concentration 25 μM, about 18 hours, read-out: WIZ AC50
Method in brief: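 HiBit-tagged WIZ (N-terminal tag, HSVTK promoter) stably expressed single-copy in 293T cells; 10-point 1:5 compound series, top 25 μM, ~18 h at 37 °C. Lytic HiBit/LgBit luminescence read; Amax = curve-fitted % WIZ-HiBit remaining at 25 μM, DMSO normalized to 100%.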

[1] = HEK-293T, read-out: % degradation of WIZ (100 − Amax)

T1 sequence (O95785 whole entry, the tested form may be a part): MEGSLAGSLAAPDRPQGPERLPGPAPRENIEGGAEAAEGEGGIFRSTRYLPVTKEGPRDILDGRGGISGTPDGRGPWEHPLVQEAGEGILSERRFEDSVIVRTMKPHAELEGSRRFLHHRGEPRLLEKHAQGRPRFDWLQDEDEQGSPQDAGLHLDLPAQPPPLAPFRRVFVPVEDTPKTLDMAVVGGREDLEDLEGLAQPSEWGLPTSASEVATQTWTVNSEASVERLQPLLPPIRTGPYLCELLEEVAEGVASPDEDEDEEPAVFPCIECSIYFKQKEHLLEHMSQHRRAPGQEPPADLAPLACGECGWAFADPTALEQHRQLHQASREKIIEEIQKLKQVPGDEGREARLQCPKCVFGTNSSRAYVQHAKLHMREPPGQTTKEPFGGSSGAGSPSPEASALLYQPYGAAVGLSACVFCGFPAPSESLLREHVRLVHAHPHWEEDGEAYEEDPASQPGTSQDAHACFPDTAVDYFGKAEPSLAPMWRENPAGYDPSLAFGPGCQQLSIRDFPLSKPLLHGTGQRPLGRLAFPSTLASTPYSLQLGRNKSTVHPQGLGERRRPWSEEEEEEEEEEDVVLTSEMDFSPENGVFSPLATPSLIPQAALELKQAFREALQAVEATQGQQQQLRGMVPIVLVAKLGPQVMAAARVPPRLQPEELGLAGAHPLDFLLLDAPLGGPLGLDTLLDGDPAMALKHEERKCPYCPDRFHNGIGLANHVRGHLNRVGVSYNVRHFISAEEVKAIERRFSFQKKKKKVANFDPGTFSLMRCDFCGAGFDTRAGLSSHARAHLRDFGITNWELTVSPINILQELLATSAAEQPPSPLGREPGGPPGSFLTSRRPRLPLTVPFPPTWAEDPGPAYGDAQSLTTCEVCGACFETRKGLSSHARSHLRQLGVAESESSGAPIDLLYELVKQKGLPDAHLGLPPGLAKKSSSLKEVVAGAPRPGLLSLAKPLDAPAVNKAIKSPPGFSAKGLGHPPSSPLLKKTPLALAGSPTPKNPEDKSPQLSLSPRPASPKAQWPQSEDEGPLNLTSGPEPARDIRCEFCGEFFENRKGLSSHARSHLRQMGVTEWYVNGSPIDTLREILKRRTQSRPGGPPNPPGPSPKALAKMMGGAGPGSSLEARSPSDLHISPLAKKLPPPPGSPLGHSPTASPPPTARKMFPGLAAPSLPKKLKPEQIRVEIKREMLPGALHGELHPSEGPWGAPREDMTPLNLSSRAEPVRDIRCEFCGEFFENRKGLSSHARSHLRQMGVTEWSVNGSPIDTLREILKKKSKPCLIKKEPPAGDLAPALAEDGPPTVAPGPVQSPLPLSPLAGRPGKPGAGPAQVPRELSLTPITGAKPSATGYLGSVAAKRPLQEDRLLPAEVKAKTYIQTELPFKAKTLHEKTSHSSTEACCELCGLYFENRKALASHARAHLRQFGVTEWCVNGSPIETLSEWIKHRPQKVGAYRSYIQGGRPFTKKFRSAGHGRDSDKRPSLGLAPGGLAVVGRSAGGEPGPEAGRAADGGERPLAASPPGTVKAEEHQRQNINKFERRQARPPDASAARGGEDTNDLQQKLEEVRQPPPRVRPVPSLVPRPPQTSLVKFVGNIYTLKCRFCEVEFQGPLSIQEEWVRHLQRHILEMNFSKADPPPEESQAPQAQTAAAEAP
T1 sequence (Q96SW2 whole entry, the tested form may be a part): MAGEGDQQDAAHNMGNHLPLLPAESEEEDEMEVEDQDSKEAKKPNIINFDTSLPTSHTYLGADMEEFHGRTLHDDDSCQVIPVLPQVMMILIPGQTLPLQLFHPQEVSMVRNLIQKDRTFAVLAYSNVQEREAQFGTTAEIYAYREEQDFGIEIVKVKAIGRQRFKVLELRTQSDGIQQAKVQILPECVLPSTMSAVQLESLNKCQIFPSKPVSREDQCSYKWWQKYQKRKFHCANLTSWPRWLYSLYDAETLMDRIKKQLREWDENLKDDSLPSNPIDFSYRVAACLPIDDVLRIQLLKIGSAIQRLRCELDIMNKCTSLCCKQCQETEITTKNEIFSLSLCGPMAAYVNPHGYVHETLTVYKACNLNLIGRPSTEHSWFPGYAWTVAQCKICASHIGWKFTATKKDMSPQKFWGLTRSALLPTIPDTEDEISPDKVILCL
T1 sequence (Q16531 whole entry partner, the tested form may be a part): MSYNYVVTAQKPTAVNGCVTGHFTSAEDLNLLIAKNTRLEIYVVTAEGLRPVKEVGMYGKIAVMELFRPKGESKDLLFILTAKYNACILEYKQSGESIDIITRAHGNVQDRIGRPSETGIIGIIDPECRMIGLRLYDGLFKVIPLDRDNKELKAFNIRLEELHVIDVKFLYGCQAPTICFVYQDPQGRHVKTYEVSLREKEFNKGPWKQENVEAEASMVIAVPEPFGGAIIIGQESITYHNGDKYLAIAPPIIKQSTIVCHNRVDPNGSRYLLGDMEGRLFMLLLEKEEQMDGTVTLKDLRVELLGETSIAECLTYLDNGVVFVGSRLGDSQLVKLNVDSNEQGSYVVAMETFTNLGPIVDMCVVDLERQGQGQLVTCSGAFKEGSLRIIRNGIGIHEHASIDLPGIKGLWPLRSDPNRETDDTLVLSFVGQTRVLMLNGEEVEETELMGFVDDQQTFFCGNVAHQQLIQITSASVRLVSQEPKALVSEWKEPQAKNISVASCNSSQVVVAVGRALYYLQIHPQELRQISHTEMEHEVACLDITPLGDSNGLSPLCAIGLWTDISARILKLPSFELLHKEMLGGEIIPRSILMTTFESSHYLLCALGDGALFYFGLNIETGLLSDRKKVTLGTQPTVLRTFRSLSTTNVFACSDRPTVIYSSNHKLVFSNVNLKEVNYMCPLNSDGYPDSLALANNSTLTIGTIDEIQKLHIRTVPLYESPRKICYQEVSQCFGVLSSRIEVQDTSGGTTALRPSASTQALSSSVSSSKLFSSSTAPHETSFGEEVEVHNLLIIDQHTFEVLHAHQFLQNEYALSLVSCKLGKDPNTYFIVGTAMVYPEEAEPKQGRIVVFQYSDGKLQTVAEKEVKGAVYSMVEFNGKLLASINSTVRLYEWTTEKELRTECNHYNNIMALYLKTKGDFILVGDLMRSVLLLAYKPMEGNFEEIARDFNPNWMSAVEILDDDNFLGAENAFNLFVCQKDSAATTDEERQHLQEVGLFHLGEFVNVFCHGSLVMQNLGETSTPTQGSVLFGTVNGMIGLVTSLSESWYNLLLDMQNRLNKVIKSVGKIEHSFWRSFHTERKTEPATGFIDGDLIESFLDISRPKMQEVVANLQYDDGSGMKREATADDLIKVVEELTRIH

SMILES	Dmax at 25 µM [1] [%]	remaining activity at 25 µM (HEK-293T, read-out: WIZ Amax) [%]	DC50 [nM]	Dmax [1] [%]	remaining activity (HEK-293T, read-out: WIZ Amax) [%]
C[C@H]1C[C@H](Cc2ccn3ncc(N4CCC(=O)NC4=O)c3c2)CCN1C[C@@H]1CCC(F)(F)C1 [Example 306, 1-(5-(((2S,4R)-1-(((R)-3,3-difluorocyclopentyl)methyl)-2-methylpiperidin-4-yl)methyl)pyrazolo[1,5-a]pyridin-3-yl)dihydropyrimidine-2,4(1H,3H)-dione]	84	16	8	–	–
O=C1CCN(c2cnn3ccc(CC4CCN(Cc5ccc(C(F)(F)F)cc5)CC4)cc23)C(=O)N1 [Example 57, 1-(5-((1-(4-(trifluoromethyl)benzyl)piperidin-4-yl)methyl)pyrazolo[1,5-a]pyridin-3-yl)dihydropyrimidine-2,4(1H,3H)-dione]	63	37	107	–	–
CC(C)(C)OC(=O)N1CCC(Cc2ccn3ncc(N4CCC(=O)NC4=O)c3c2)CC1 [Example 97, tert-butyl 4-((3-(2,4-dioxotetrahydropyrimidin-1(2H)-yl)pyrazolo[1,5-a]pyridin-5-yl)methyl)piperidine-1-carboxylate]	44	56	24800	–	–
O=C1CCN(c2cnn3ccc(CC4CCN(Cc5ccc(OC(F)(F)F)cc5)CC4)cc23)C(=O)N1 [Example 56, 1-(5-((1-(4-(trifluoromethoxy)benzyl)piperidin-4-yl)methyl)pyrazolo[1,5-a]pyridin-3-yl)dihydropyrimidine-2,4(1H,3H)-dione]	63	37	204	–	–
CC(C)(O)CN1CCN(Cc2ccn3ncc(N4CCC(=O)NC4=O)c3c2)CC1 [Example 183, 1-(5-((4-(2-hydroxy-2-methylpropyl)piperazin-1-yl)methyl)pyrazolo[1,5-a]pyridin-3-yl)dihydropyrimidine-2,4(1H,3H)-dione]	65	35	468	–	–
CC(C)(C1CCC1)N1CCC(Cc2ccn3ncc(N4CCC(=O)NC4=O)c3c2)CC1 [Example 138, 1-(5-((1-(2-cyclobutylpropan-2-yl)piperidin-4-yl)methyl)pyrazolo[1,5-a]pyridin-3-yl)dihydropyrimidine-2,4(1H,3H)-dione]	80	20	100	–	–
C[C@H]1C[C@H](Cc2ccn3ncc(N4CCC(=O)NC4=O)c3c2)CCN1CC1CCCCCC1 [Example 147]	90	10	5	–	–
CC(C)(C1CCC(F)(F)CC1)N1CCC(Cc2ccn3ncc(N4CCC(=O)NC4=O)c3c2)CC1 [Example 140, 1-(5-((1-(2-(4,4-difluorocyclohexyl)propan-2-yl)piperidin-4-yl)methyl)pyrazolo[1,5-a]pyridin-3-yl)dihydropyrimidine-2,4(1H,3H)-dione]	90	10	7	–	–
CC(C)C(=O)N1CC[C@@H](Cc2ccn3ncc(N4CCC(=O)NC4=O)c3c2)C[C@@H]1C [Example 288]	80	20	8	–	–
COC[C@H]1CN(Cc2ccn3ncc(N4CCC(=O)NC4=O)c3c2)CCN1CC(C)C [Example 245, (R)-1-(5-((4-isobutyl-3-(methoxymethyl)piperazin-1-yl)methyl)pyrazolo[1,5-a]pyridin-3-yl)dihydropyrimidine-2,4(1H,3H)-dione]	52	48	351	–	–
C[C@H]1C[C@H](Cc2ccn3ncc(N4CCC(=O)NC4=O)c3c2)CCN1C(=O)N1CCCC1 [Example 295]	80	20	24	–	–
O=C1CCN(c2cnn3ccc(CN4CCCNCC4)cc23)C(=O)N1 [Example 248, 1-(5-((1,4-diazepan-1-yl)methyl)pyrazolo[1,5-a]pyridin-3-yl)dihydropyrimidine-2,4(1H,3H)-dione]	0	100	> 25000	–	–
O=C1CCN(c2cnn3ccc(CC4CCN(Cc5cncc(F)c5)CC4)cc23)C(=O)N1 [Example 33, 1-(5-((1-((5-fluoropyridin-3-yl)methyl)piperidin-4-yl)methyl)pyrazolo[1,5-a]pyridin-3-yl)dihydropyrimidine-2,4(1H,3H)-dione]	73	27	31	–	–
C[C@H]1C[C@H](Cc2ccn3ncc(N4CCC(=O)NC4=O)c3c2)CCN1C1COC1 [Example 279, 1-(5-(((2S,4R)-2-methyl-1-(oxetan-3-yl)piperidin-4-yl)methyl)pyrazolo[1,5-a]pyridin-3-yl)dihydropyrimidine-2,4(1H,3H)-dione]	91	9	26	–	–
C[C@H]1C[C@H](Cc2ccn3ncc(N4CCC(=O)NC4=O)c3c2)CCN1C(=O)N(C)C [Example 294]	81	19	18	–	–
CC(C)CN1CCN(Cc2ccn3ncc(N4CCC(=O)NC4=O)c3c2)C[C@H]1C [Example 216]	65	35	89	–	–
CCN1CCC(Cc2ccn3ncc(N4CCC(=O)NC4=O)c3c2)CC1 [Example 24, 1-(5-((1-ethylpiperidin-4-yl)methyl)pyrazolo[1,5-a]pyridin-3-yl)dihydropyrimidine-2,4(1H,3H)-dione]	77	23	1080	–	–
CC(C)CN1CCC(Cc2ccn3ncc(N4CCC(=O)NC4=O)c3c2)CC1(C)C (stereo not drawn) [Example 79, 1-(5-((1-isobutyl-2,2-dimethylpiperidin-4-yl)methyl)pyrazolo[1,5-a]pyridin-3-yl)dihydropyrimidine-2,4(1H,3H)-dione]	65	35	65	–	–
CO[C@H]1CC[C@@H](CN2CCN(Cc3ccn4ncc(N5CCC(=O)NC5=O)c4c3)CC2)CC1 [Example 180, 1-(5-((4-(((1s,4s)-4-methoxycyclohexyl)methyl)piperazin-1-yl)methyl)pyrazolo[1,5-a]pyridin-3-yl)dihydropyrimidine-2,4(1H,3H)-dione]	81	19	78	–	–
CC(C)CS(=O)(=O)N1CCC(Cc2ccn3ncc(N4CCC(=O)NC4=O)c3c2)CC1 [Example 87]	79	21	25	–	–
CC(C)(CN1CCN(Cc2ccn3ncc(N4CCC(=O)NC4=O)c3c2)CC1)C(F)(F)F [Example 241, 1-(5-((4-(3,3,3-trifluoro-2,2-dimethylpropyl)piperazin-1-yl)methyl)pyrazolo[1,5-a]pyridin-3-yl)dihydropyrimidine-2,4(1H,3H)-dione]	44	56	351	–	–
O=C1CCN(c2cnn3ccc(CC4CCN(S(=O)(=O)CC5CCCCC5)CC4)cc23)C(=O)N1 [Example 80, 1-(5-((1-((cyclohexylmethyl)sulfonyl)piperidin-4-yl)methyl)pyrazolo[1,5-a]pyridin-3-yl)dihydropyrimidine-2,4(1H,3H)-dione]	–	–	49	88	12
C[C@H]1CN(Cc2ccn3ncc(N4CCC(=O)NC4=O)c3c2)CCN1C1COC1 [Example 331]	76	24	73	–	–
O=C1CCN(c2cnn3ccc(CC4CCN(CC(F)(F)C5CCCCC5)CC4)cc23)C(=O)N1 [Example 112, 1-(5-((1-(2-cyclohexyl-2,2-difluoroethyl)piperidin-4-yl)methyl)pyrazolo[1,5-a]pyridin-3-yl)dihydropyrimidine-2,4(1H,3H)-dione]	66	34	16	–	–
C[C@H]1CN(CC2CCOCC2)CCN1Cc1ccn2ncc(N3CCC(=O)NC3=O)c2c1 [Example 223]	51	49	877	–	–
C[C@H]1C[C@H](Cc2ccn3ncc(N4CCC(=O)NC4=O)c3c2)CCN1C1CCC1 [Example 280, 1-(5-(((2S,4R)-1-cyclobutyl-2-methylpiperidin-4-yl)methyl)pyrazolo[1,5-a]pyridin-3-yl)dihydropyrimidine-2,4(1H,3H)-dione]	88	12	8	–	–
O=C1CCN(c2cnn3ccc(CC4CCN(Cc5nccs5)CC4)cc23)C(=O)N1 [Example 60, 1-(5-((1-(thiazol-2-ylmethyl)piperidin-4-yl)methyl)pyrazolo[1,5-a]pyridin-3-yl)dihydropyrimidine-2,4(1H,3H)-dione]	61	39	34	–	–
O=C1CCN(c2cnn3ccc(CC4CCN(S(=O)(=O)CC5CC5)CC4)cc23)C(=O)N1 [Example 84]	87	13	55	–	–
O=C1CCN(c2cnn3ccc(CC4CCN(CC(CO)CO)CC4)cc23)C(=O)N1 [Example 121, 1-(5-((1-(3-hydroxy-2-(hydroxymethyl)propyl)piperidin-4-yl)methyl)pyrazolo[1,5-a]pyridin-3-yl)dihydropyrimidine-2,4(1H,3H)-dione]	50	50	> 25000	–	–
O=C1CCN(c2cnn3ccc(CN4CCN(CC5CCC(F)(F)CC5)CC4)cc23)C(=O)N1 [Example 157]	83	17	22	–	–
